The term IC50 denotes the midpoint of a concentration-inhibition curve.

Drawing on patent US8674118B2, “Compounds and methods for the treatment or prevention of flavivirus infections” (priority 2005, dated 2014), this text covers IC50 for 28 compounds.

This experiment has as its system HCV RNA replication (replicon cell lines Huh-7, 5.2 and ET). The experiment can be described thus: Cell-Based Luciferase Reporter HCV RNA Replication Assay.
Setting [1] is: Hepatitis C virus, Huh-7, 96 h, Huh-7, 5.2 or ET replicon cells, luciferase counts after 4 days incubation, read-out: IC50.

Where two headings read alike, the source gives them in different places.

For the compound `CC1CCC(C(=O)N(c2cc(C3=CCCCC3)sc2C(=O)O)C2CCC(C(C)(C)C)CC2)CC1` (stereo not drawn) [Compound 45, 3-[(4-cis-tert-butyl-cyclohexyl)-(4-trans-methyl-cyclohexanecarbonyl)-amino]-5-cyclohex-1-enyl-thiophene-2-carboxylic acid], the IC50 (Huh-7, 5.2 or ET replicon cells, luciferase counts after 4 days incubation, read-out: IC50) is < 5 µM.
Regarding `CC1CC=C(c2cc(N(C(=O)[C@H]3CC[C@H](C)CC3)C(C)C)c(C(=O)O)s2)CC1` (relative stereo) [Compound 43, 3-[isopropyl-(trans-4-methyl-cyclohexanecarbonyl)-amino]-5-(4-methyl-cyclohex-1-enyl)-thiophene-2-carboxylic acid], the IC50 under setting [1] is < 5 µM.
Same read-out and setting: to `CCOCO[C@H]1CC[C@H](N(c2cc(C3=CCCCC3)sc2C(=O)O)C(=O)[C@H]2CC[C@H](C)CC2)CC1` [Compound 125, 5-cyclohex-1-enyl-3-[(trans-4-ethoxymethoxy-cyclohexyl)-(trans-4-methyl-cyclohexanecarbonyl)-amino]-thiophene-2-carboxylic acid] belongs < 5 µM.
With `CC(C)N(C(=O)c1ccc(Cl)cc1Cl)c1cc(C2=CCCC2)sc1C(=O)O` [Compound 15, 5-Cyclopent-1-enyl-3-[(2,4-dichloro-benzoyl)-isopropyl-amino]-thiophene-2-carboxylic acid], under setting [1], the IC50 is > 25 µM.
On the same count and under the same terms, to `CC1CCC(C(=O)N(c2cc(C3=CCCCC3)sc2C(=O)O)C2CCN3C(=O)CCC3C2)CC1` (stereo not drawn) [Compound 87, RS-5-cyclohex-1-enyl-3-[(4-trans-methyl-cyclohexanecarbonyl)-(3-oxo-octahydro-indolizin-7-yl)-amino]-thiophene-2-carboxylic acid] belongs < 5 µM.
In the case of `CC1CCC(C(=O)N(c2cc(C3=CCCCC3)sc2C(=O)O)C2CCC3CCCCC3C2)CC1` (mixture of isomers) [Compound 65, 5-cyclohex-1-enyl-3-[(cis/trans-decahydro-naphthalen-2-yl)-(4-trans-methyl-cyclohexanecarbonyl)-amino]-thiophene-2-carboxylic acid], under setting [1], the IC50 was < 5 µM.
`C[C@H]1CC[C@H](C(=O)N(c2cc(C3=CCCCC3)sc2C(=O)O)C2COCOC2)CC1` [Compound 30, 5-cyclohex-1-enyl-3-[[1,3]dioxan-5-yl-(trans-4-methylcyclohexanecarbonyl)-amino]-thiophene-2-carboxylic acid]: the IC50 under setting [1] was < 5 µM.
On the same count and under the same terms, to `CC(C)C(=O)N[C@H]1CC[C@H](N(c2cc(C3=CCCCC3)sc2C(=O)O)C(=O)[C@H]2CC[C@H](C)CC2)CC1` [Compound 134, 5-cyclohex-1-enyl-3-[(trans-4-isobutyrylamino-cyclohexyl)-(trans-4-methyl-cyclohexanecarbonyl)-amino]-thiophene-2-carboxylic acid] belongs < 5 µM; to `C[C@H]1CC[C@H](C(=O)N(c2ccc3c(c2)OCO3)c2cc(C3=CCCCC3)sc2C(=O)O)CC1` [Compound 136, 3-[benzo[1,3]dioxol-5-yl-(trans-4-methyl-cyclohexanecarbonyl)-amino]-5-cyclohex-1-enyl-thiophene-2-carboxylic acid], < 5 µM.
Regarding `CC1CCCC(N(c2cc(C3=CCCCC3)sc2C(=O)O)C(=O)[C@H]2CC[C@H](C)CC2)C1` (relative stereo) [Compound 39, 5-cyclohex-1-enyl-3-[(trans-4-methyl-cyclohexanecarbonyl)-(3-methyl-cyclohexyl)-amino]-thiophene-2-carboxylic acid], under setting [1], the IC50 was < 5 µM.
The same measure, in the same setting: for `C[C@H]1CC[C@H](C(=O)N(c2cc(C3=CCCCC3)sc2C(=O)O)[C@H]2CC[C@@H](C#N)CC2)CC1` [Compound 49, 3-[(cis-4-cyanocyclohexyl)-(trans-4-methylcyclohexanecarbonyl)-amino]-5-cyclohex-1-enyl-thiophene-2-carboxylic acid] the value was < 5 µM.
For `C[C@H]1CC[C@H](C(=O)N(c2cc(C3=CCCCC3)sc2C(=O)O)C2CCN(c3cncnc3)CC2)CC1` [Compound 96, 5-cyclohex-1-enyl-3-[(trans-4-methyl-cyclohexanecarbonyl)-(1-pyrimidin-5-yl-piperidin-4-yl)-amino]-thiophene-2-carboxylic acid], under setting [1], the IC50 was < 5 µM.
Regarding `CCON=C1CCC(N(c2cc(C3=CCCCC3)sc2C(=O)O)C(=O)[C@H]2CC[C@H](C)CC2)CC1` (relative stereo) [Compound 54, 5-cyclohex-1-enyl-3-[(4-ethoxyimino-cyclohexyl)-(trans-4-methyl-cyclohexanecarbonyl)-amino]-thiophene-2-carboxylic acid], where the note is “Hepatitis C virus, Huh-7, 96 h”, the IC50 was < 5 µM.
For `C[C@H]1CC[C@H](C(=O)N(c2cc(C3=CCCCC3)sc2C(=O)O)C2CC3CCC(C3)C2)CC1` (relative stereo) [Compound 40, 3-[bicyclo[3.2.1]oct-3-yl-(trans-4-methylcyclohexanecarbonyl)-amino]-5-cyclohex-1-enyl-thiophene-2-carboxylic acid], under setting [1], the IC50 is < 5 µM.
Take `C[C@H]1CC[C@H](C(=O)N(c2cc(C3=CCCCC3)sc2C(=O)O)C2CCC(=O)CC2)CC1` [Compound 8, 5-Cyclohex-1-enyl-3-[(trans-4-methyl-cyclohexanecarbonyl)-(4-oxo-cyclohexyl)-amino]-thiophene-2-carboxylic acid]: the half-maximal inhibitory concentration (IC50) under setting [1] was < 5 µM.
As to `CC1CCC(C(=O)N(c2cc(C3=CC4CCC3C4)sc2C(=O)O)C2CCC(O)CC2)CC1` (stereo not drawn) [Compound 28, 5-bicyclo[2.2.1]hept-2-en-2-yl-3-[(4-trans-hydroxy-cyclohexyl)-(4-trans-methyl-cyclohexanecarbonyl)-amino]-thiophene-2-carboxylic acid], for the setting “Hepatitis C virus, Huh-7, 96 h”, the IC50 was > 25 µM.
Turning to `CC1CCC(C(=O)N(c2cc(C3CCC(O)CC3)sc2C(=O)O)C2CCC(O)CC2)CC1` (mixture of isomers) [Compound 85, 5-(4-cis/trans-hydroxy-cyclohexyl)-3-[(4-trans-hydroxy-cyclohexyl)-(4-trans-methyl-cyclohexanecarbonyl)-amino]-thiophene-2-carboxylic acid], the IC50 under setting [1] is 5 to 25 µM.
Still for that read-out and setting: to `COCOC1CCC(N(C(=O)C2CCC(C)CC2)c2cc(C3=CCC(C)(C)CC3)sc2C(=O)O)CC1` (stereo not drawn) [Compound 114, 5-(4,4-dimethyl-cyclohex-1-enyl)-3-[(4-trans-methoxymethoxy-cyclohexyl)-(4-trans-methyl-cyclohexanecarbonyl)-amino]-thiophene-2-carboxylic acid] belongs < 5 µM; to `COC1CCC(N(C(=O)C2CCC(C)CC2)c2cc(C3=CCCCC3)sc2C(=O)O)CC1` (stereo not drawn) [Compound 23, 5-Cyclohex-1-enyl-3-[(cis-4-methoxy-cyclohexyl)-(4-trans-methyl-cyclohexanecarbonyl)-amino]-thiophene-2-carboxylic acid], < 5 µM.
The same measure, in the same setting: for `COCC1CCC(N(C(=O)C2CCC(C)CC2)c2cc(C3=CCCCC3)sc2C(=O)O)CC1` (mixture of isomers) [Compound 126, 5-cyclohex-1-enyl-3-[(4-cis/trans-methoxymethyl-cyclohexyl)-(4-trans-methyl-cyclohexanecarbonyl)-amino]-thiophene-2-carboxylic acid] the value was < 5 µM.
For `CC1(C)CCC(N(c2cc(C3=CCCCC3)sc2C(=O)O)C(=O)[C@H]2CC[C@H](C)CC2)CC1` [Compound 38, 5-cyclohex-1-enyl-3-[(4,4-dimethyl-cyclohexyl)-(trans-4-methyl-cyclohexanecarbonyl)-amino]-thiophene-2-carboxylic acid], the IC50 under setting [1] is < 5 µM.
The same measure, in the same setting: to `CC1(C)CCC(c2cc(N(C(=O)[C@H]3CC[C@H](C)CC3)C3COCOC3)c(C(=O)O)s2)CC1` [Compound 97, 5-(4,4-Dimethyl-cyclohexyl)-3-[[1,3]dioxan-5-yl-(trans-4-methyl-cyclohexanecarbonyl)-amino]-thiophene-2-carboxylic acid] belongs < 5 µM; to `CC1(C)CCC(c2cc(N(C(=O)[C@H]3CC[C@H](C)CC3)[C@H]3CC[C@H](F)CC3)c(C(=O)O)s2)CC1` [Compound 83, 5-(4,4-dimethyl-cyclohexyl)-3-[(trans-4-fluoro-cyclohexyl)-(trans-4-methyl-cyclohexanecarbonyl)-amino]-thiophene-2-carboxylic acid], < 5 µM.
For `CC1CCC(C(=O)N(c2cc(C3=CC/C(=N/OCc4ccccc4)CC3)sc2C(=O)O)C2CCC(O)CC2)CC1` (stereo not drawn) [Compound 26, 5-{4-benzyloxyimino-cyclohex-1-enyl}-3-[(4-trans-hydroxy-cyclohexyl)-(4-trans-methyl-cyclohexanecarbonyl)-amino]-thiophene-2-carboxylic acid], the IC50 under setting [1] was < 5 µM.
With `CC1CCC(C(=O)N(c2cc(C3=CCCCC3)sc2C(=O)O)C2CCN(c3ncccn3)CC2)CC1` (stereo not drawn) [Compound 103, 5-cyclohex-1-enyl-3-[(trans, 4-methyl-cyclohexanecarbonyl)-(1-pyrimidin-2-yl-piperidin-4-yl)-amino]-thiophene-2-carboxylic acid], the IC50 under setting [1] was < 5 µM.
On the same count and under the same terms, for `C[C@H]1CC[C@H](C(=O)N(c2cc(C3=CCCCC3)sc2C(=O)O)C2CCN(C#N)CC2)CC1` [Compound 102, 3-[(1-cyano-piperidin-4-yl)-(trans-4-methyl-cyclohexanecarbonyl)-amino]-5-cyclohex-1-enyl-thiophene-2-carboxylic acid] the value was < 5 µM; for `C[C@H]1CC[C@H](C(=O)N(c2cc(C3=CC(O)CCC3)sc2C(=O)O)[C@H]2CC[C@H](O)CC2)CC1` (relative stereo) [Compound 82, 5-(3-hydroxy-cyclohex-1-enyl)-3-[(trans-4-hydroxy-cyclohexyl)-(trans-4-methyl-cyclohexanecarbonyl)-amino]-thiophene-2-carboxylic acid], 5 to 25 µM; for `COC1CCC(N(C(=O)C2CCC(C)CC2)c2cc(C3=CCCC(C)(C)C3)sc2C(=O)O)CC1` (stereo not drawn) [Compound 138, 5-(5,5-dimethyl-cyclohex-1-enyl)-3-[(4-trans-methoxy-cyclohexyl)-(4-trans-methyl-cyclohexanecarbonyl)-amino]-thiophene-2-carboxylic acid], < 5 µM.
